Legend:
WT TRPV1 = biological target: T1, WT TRPV1 (Rattus norvegicus, UniProt O35433); assay: Two-electrode voltage-clamp in Xenopus oocytes, WT TRPV1; type: cell-based
T1 construct: expressed in transfected cells; host or cells: Xenopus oocytes (cRNA injection, pGEM-HE)
Excerpt: (§1) To further investigate the putative vanilloid binding pocket in TRPV1, we inspected the cryo-EM structure of TRPV1, looking for residues that are located nearby to the putative RTx density (Figure 1B; regions/residues highlighted in yellow) and that differ between TRPV1 and TRPV2 channels (Figure 3—figure supplement 1; regions highlighted in magenta). […] To quantify the contribution of each of these residues to TRPV1 channel activation by RTx under our experimental conditions, we mutated each to the corresponding residue in TRPV2. We then expressed each construct in oocytes and used the two electrode voltage-clamp technique to study activation by RTx and by the non-specific TRPV channel activator 2-APB. We recorded time courses for channel activation by each agonist while stepping the membrane potential from −60 to +60 mV every 3 s from a holding potential of 0 mV using an external recording solution containing 100 mM KCl (internal K^+ concentration in a healthy oocyte is 100 mM) (Figure 3A, left). We also recorded current-voltage (I-V) relations by stepping over a wider range of voltages in the absence and presence of activators, or in the presence of ruthenium red (RR), a non-specific inhibitor of TRP channels (Figure 3A, right).
The WT rat TRPV1 and TRPV2 channels in the pcDNA3.1 vector were kindly provided by Dr. David Julius (UCSF) ([Caterina et al., 1997]; [Caterina et al., 1999]) and subcloned into the pGEM-HE vector ([Liman et al., 1992]). Mutations were introduced into rTRPV1 using a two-step PCR mutagenesis technique and the resulting constructs were verified by sequencing. All channel constructs were expressed in Xenopus oocytes and studied following 1–4 days incubation after cRNA injection (incubated at 17°C in 96 mM NaCl, 2 mM KCl, 5 mM HEPES, 1 mM MgCl2 and 1.8 mM CaCl2, 50 μg/ml gentamycin, pH 7.6 with NaOH) using the two-electrode voltage-clamp recording technique (OC-725C, Warner Instruments, Hamden, CT) with a 150 μl recording chamber. Data were filtered at 1–3 kHz and digitized at 20 kHz using pClamp software (Molecular Devices, Sunnyvale, CA). […]

[1] = biological target: T2, TRPV1 QM (S512F, M547L, T550L, E570Q) (Rattus norvegicus, UniProt O35433, E570Q/M547L/S512F/T550L); assay: Two-electrode voltage-clamp in Xenopus oocytes, TRPV1 QM; type: cell-based; conditions: 2 mM 2-APB
T2 construct: expressed in transfected cells; host or cells: Xenopus oocytes (cRNA injection)
Excerpt: as §1, with “right). […]” for “right).”

WT TRPV2 = biological target: T3, WT TRPV2 (Rattus norvegicus, UniProt Q9WUD2); assay: Two-electrode voltage-clamp in Xenopus oocytes, WT TRPV2; type: cell-based; conditions: 4 mM 2-APB
T3 construct: expressed in transfected cells; host or cells: Xenopus oocytes (cRNA injection, pGEM-HE)
Excerpt: as §1, with “right). […]” for “right).”

TRPV2 = test system: TRPV2; set-up: method as in Caterina et al., 1999; conditions: ref Caterina et al., 1999; cited from earlier work
TRPV2 QM = biological target: T4, TRPV2 QM (Rattus norvegicus, UniProt Q9WUD2, F472S/L507M/L510T/Q530E); assay: Two-electrode voltage-clamp in Xenopus oocytes, TRPV2 QM; type: cell-based; conditions: 50 µM capsaicin
T4 construct: expressed in transfected cells; host or cells: Xenopus oocytes (cRNA injection)
T4 sequence (Q9WUD2 1-761 F472S/L507M/L510T/Q530E): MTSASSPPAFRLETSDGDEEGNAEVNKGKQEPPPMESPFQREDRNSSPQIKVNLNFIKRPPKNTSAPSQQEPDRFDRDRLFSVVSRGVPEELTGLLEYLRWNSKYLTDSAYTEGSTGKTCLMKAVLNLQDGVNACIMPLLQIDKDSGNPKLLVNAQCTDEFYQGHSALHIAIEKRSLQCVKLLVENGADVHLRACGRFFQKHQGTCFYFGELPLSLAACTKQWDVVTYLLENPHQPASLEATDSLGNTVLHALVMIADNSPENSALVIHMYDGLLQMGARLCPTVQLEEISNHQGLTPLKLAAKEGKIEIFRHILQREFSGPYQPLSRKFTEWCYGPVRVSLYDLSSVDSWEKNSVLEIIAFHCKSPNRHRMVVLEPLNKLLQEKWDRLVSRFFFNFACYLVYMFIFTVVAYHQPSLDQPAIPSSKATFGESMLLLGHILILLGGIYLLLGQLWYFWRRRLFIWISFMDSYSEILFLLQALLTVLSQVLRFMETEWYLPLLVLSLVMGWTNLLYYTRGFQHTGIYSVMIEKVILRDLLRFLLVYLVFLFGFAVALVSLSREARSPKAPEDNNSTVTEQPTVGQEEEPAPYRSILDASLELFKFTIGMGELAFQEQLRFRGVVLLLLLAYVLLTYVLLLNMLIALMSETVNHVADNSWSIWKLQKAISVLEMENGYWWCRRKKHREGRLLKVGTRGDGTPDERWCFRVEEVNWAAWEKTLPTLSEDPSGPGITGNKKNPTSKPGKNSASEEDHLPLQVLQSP
Excerpt: as §1, with “right). […]” for “right).”

[2] = test system: full-length 1D4-tagged TRPV1; assay: 3H-RTx binding to S. cerevisiae membranes containing 1D4-tagged TRPV1; set-up: species or system rat; conditions: membranes, RTx binding in the presence of DkTx vs control
Excerpt: The polymodal activation of TRPV1 has been widely conceptualized using allosteric models wherein binding of activators (such as vanilloids, protons, DkTx or voltage) are allosterically coupled to opening of the pore ([Brauchi et al., 2004]; [Jara-Oseguera et al., 2016]; [Matta and Ahern, 2007]). The allosteric nature of these interactions has begun to be explored using electrophysiological measurements of channel function ([Jara-Oseguera et al., 2016]; [Yao et al., 2010]), but has thus far not been investigated biochemically. We therefore tested whether binding of DkTx can enhance the affinity of TRPV1 for RTx, which would be predicted by an allosteric model wherein the two activators promote opening by binding more tightly to the open state. For these experiments we used a 1D4-tagged TRPV1 construct where expression in S. cerevisiae was driven by a constitutive promoter and we performed binding assays on yeast membranes where the vanilloid would have free access to the channel protein (see Methods). Under these conditions, we measured a Kd for RTx binding to 1D4-tagged TRPV1 of 0.6 nM under control conditions, about ten fold higher affinity than what we measured in intact cells using GFP-tagged TRPV1. When we measured the concentration-dependence of RTx binding to 1D4-tagged TRPV1 in the presence of DkTx, we observed that the tarantula toxin enhanced the affinity for RTx by about 3-fold (Figure 2A). The effects of DkTx were concentration-dependent (Figure 2B) and were observed independent of whether the binding assay was performed at 37°C (our standard temperature) or at 30°C (Figure 2A).
The full-length TRPV1 and TRPV2 channels with 1D4 affinity tags (TETSQVAPA) on their C-termini were cloned into the YEpHIS vector and expressed in the BJ5457 strain of S. cerevisiae using the strong constitutively active PMA1 promoter, as previously described ([Moiseenkova-Bell et al., 2008]). After 48 hr of expression at 30°C in YPD media, cells were harvested by centrifugation and re-suspended in PBS buffer, supplemented with complete protease inhibitor cocktail (Roche, Indianapolis, IN) and 4-amidinophenylmethanesulfonyl fluoride hydrochloride (APMSF) (Sigma-Aldrich, St. Louis, MO). Cells were broken by passing through an Avestin homogenizer at the pressure of 35 kpsi, cell lysate was cleared by centrifugation at 8,000 g for 15 min and membranes were isolated by ultracentrifugation at 190,000 g for 1 hr. Membrane pellets were re-suspended in PBS buffer supplemented with protease inhibitors and 200 mM sucrose, flash-frozen in liquid nitrogen and stored at -70°C until RTx binding measurements.
S. cerevisiae cells overexpressing TRPV1 constructs to be used in ligand binding assays on intact cells (Figure 1E,F) were grown as for small scale expression trials. 24 hr after protein induction cells were spun down at 4000g, the supernatant was removed and the pellet resuspended in 1x PBS, normalizing OD600 to 75 for each sample, and aliquoted for storage at -80°C. ^3H-RTx binding assays on cells were performed at 37°C as previously described ([Feng et al., 2015]), but where non-specific binding of RTx was measured using cells expressing GFP alone. The binding of RTx to TRPV1 and TRPV2 in membranes (e.g. Figure 2A,B and 5C) was performed at 37°C unless otherwise stated using membranes prepared from large scale protein preparations of S. cerevisiae containing rat TRPV1 and TRPV2 with a 1D4 tag expressed using a constitutive promoter as in [Moiseenkova-Bell et al., 2008]. Data for binding of RTx to membranes was corrected for non-specific binding, determined using either excess non-radioactive ligand or heat inactivation of the protein, as previously described ([Feng et al., 2015]). The TRPV1-activating double-knot toxin (DkTx) was produced recombinantly, folded in vitro and purified as previously described ([Bae et al., 2012]). Yeast membranes were incubated with DkTx solution for 1 hr at 4°C with gentle agitation prior to undertaking RTx binding assays. […]

T1 sequence (O35433 whole entry): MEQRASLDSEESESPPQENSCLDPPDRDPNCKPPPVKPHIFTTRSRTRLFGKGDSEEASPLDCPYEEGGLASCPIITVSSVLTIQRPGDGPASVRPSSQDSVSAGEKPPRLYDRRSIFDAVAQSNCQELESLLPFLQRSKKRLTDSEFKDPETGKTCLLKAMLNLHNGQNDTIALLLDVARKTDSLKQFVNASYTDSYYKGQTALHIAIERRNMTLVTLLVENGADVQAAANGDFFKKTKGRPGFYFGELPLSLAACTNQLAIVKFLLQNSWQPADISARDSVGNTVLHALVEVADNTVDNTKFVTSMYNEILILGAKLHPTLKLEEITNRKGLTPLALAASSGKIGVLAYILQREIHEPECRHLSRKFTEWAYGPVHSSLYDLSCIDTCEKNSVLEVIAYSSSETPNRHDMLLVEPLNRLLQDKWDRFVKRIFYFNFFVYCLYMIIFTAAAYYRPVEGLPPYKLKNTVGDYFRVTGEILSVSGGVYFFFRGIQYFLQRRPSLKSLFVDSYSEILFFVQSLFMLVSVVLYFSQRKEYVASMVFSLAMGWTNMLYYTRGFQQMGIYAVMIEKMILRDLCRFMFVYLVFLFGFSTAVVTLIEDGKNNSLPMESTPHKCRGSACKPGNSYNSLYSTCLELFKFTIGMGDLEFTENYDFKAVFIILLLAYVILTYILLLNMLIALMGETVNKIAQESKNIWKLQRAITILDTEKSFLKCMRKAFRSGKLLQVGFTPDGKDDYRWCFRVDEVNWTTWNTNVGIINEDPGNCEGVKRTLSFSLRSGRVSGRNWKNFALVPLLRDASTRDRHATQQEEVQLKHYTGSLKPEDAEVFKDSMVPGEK
T3 sequence (Q9WUD2 whole entry): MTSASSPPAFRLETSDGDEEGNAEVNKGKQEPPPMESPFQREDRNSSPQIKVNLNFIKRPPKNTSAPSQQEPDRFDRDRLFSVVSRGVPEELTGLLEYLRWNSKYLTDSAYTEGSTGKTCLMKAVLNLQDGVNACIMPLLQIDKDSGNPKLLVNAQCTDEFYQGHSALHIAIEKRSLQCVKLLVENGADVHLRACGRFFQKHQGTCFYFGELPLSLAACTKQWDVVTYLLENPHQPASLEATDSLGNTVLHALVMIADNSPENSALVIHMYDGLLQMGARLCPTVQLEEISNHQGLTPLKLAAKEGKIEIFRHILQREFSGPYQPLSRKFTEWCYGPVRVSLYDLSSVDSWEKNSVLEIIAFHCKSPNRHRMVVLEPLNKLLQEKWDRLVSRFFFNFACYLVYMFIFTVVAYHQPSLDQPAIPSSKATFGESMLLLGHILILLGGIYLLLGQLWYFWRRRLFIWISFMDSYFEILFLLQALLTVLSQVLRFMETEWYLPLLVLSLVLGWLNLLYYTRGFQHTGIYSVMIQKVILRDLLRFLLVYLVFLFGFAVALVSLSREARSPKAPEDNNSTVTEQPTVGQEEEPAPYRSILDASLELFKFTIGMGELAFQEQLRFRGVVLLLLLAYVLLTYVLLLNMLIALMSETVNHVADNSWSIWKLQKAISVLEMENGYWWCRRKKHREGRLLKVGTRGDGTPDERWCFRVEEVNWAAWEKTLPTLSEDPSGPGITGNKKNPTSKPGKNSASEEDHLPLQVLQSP
T2 sequence (O35433 whole entry S512F/M547L/T550L/E570Q): as the sequence (O35433 whole entry) above, with S512F, M547L, T550L, E570Q counted along it

## NCCOB(c1ccccc1)c1ccccc1 [2-APB, 2-aminoethoxydiphenyl borate]
WT TRPV1; 2 mM 2-APB, +60 and -60 mV
  channel activation by 2-APB: reversible activation
[1]
  channel activation by 2-APB: retaining sensitivity
WT TRPV2
  channel activation by 2-APB: could be activated

## N.N.N.N.N.N.N.N.N.N.N.N.N.N.[Cl-].[Cl-].[Cl-].[Cl-].[Cl-].[Cl-].[O-2].[O-2].[Ru+3].[Ru+3].[Ru+4] [RR, ruthenium red]
WT TRPV1; 50 µM RR after 100 nM RTx
  inhibition of RTx-activated currents by RR: blocked the RTx-activated currents

## COc1cc(CNC(=O)CCCC/C=C/C(C)C)ccc1O [capsaicin]
TRPV2
  sensitivity to capsaicin: insensitive to capsaicin
TRPV2 QM
  channel activation by capsaicin: remained insensitive

B1: double-knot toxin (protein, UniProt P0CH43 1-79, looked up)
Tau-theraphotoxin-Hs1a: DCAKEGEVCSWGKKCCDLDNFYCPMEFIPHCKKYKPYVPVTTNCAKEGEVCGWGSKCCHGLDCPLAFIPYCEKYRGRND
[2]
  enhancement of the affinity for RTx by DkTx: about 3 fold

Reference: publication PMC4907692, “Engineering vanilloid-sensitivity into the rat TRPV2 channel” (eLife, 2016)
